Biological target: CK2α (Homo sapiens, UniProt P68400)
Test: In vitro kinase assay, [γ-32P]ATP phosphorylation of purified CSQ2 by pure CK2α

Sequence of CK2α (P68400 whole entry): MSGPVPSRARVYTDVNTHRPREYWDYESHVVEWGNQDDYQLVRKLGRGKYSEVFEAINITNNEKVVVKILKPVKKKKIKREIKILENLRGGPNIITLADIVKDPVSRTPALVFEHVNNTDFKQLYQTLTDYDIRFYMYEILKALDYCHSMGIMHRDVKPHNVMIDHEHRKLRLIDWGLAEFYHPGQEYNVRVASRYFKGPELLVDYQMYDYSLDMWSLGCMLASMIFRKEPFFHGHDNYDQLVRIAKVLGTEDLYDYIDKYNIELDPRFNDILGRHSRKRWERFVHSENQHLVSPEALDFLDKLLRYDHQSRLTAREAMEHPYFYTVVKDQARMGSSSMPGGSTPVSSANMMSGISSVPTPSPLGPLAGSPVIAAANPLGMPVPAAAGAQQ

O=C(O)/C=C/c1cc(Br)c(Br)c(Br)c1Br [TBCA]
IC50: ~10 µM

From publication PMC4331048 (Molecular and cellular biochemistry, 2011)
